Results: PubChem BioAssay AID1963986 (Molecular Pharmacology Branch, DTP, NCI, 2024)

Test system: 171881-019-R-J1-PDC tumor spheroid viability
Test: Anticancer human tumor 171881-019-R-J1-PDC patient-derived invasive breast carcinoma cell line growth inhibition [PI3K]
Details: spheroids with HUVEC and MSC; for IC50: curve of first compound; for viability, T/C: stronger effect = lower value; active = viability on the fitted dose curve at most 10% of control; inactive = the rest
In short: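 Combination activity was assessed by viability in multicellular tumor spheroids carrying HUVEC and MSC components. Agents were tested with PI3K inhibitors from a Cmax-based top dose (or 10 microM) downward in half-log increments.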

[1] = second compound 0.0316 µM, first compound 0.0316 µM
[2] = second compound 0.0316 µM, first compound 0.1 µM
[3] = second compound 0.0316 µM, first compound 0.316 µM
[4] = second compound 0.0316 µM, first compound 1 µM
[5] = second compound 0.1 µM, first compound 0.0316 µM
[6] = second compound 0.1 µM, first compound 0.1 µM
[7] = second compound 0.1 µM, first compound 0.316 µM
[8] = second compound 0.1 µM, first compound 1 µM
[9] = second compound 0.316 µM, first compound 0.0316 µM
[10] = second compound 0.316 µM, first compound 0.1 µM
[11] = second compound 0.316 µM, first compound 0.316 µM
[12] = second compound 0.316 µM, first compound 1 µM
[13] = second compound 1 µM, first compound 0.0316 µM
[14] = second compound 1 µM, first compound 0.1 µM
[15] = second compound 1 µM, first compound 0.316 µM
[16] = second compound 1 µM, first compound 1 µM
[17] = second compound 3.16 µM, first compound 0.0316 µM
[18] = second compound 3.16 µM, first compound 0.1 µM
[19] = second compound 3.16 µM, first compound 0.316 µM
[20] = second compound 3.16 µM, first compound 1 µM
[21] = second compound 10 µM, first compound 0.0316 µM
[22] = second compound 10 µM, first compound 0.1 µM
[23] = second compound 10 µM, first compound 0.316 µM
[24] = second compound 10 µM, first compound 1 µM
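Also: spheroids exposed to compound for 7 days before viability read.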
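For viability, T/C in this document: 100% = DMSO vehicle-treated spheroids.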

CCN1CCN(Cc2ccc(Nc3ncc(F)c(-c4cc(F)c5nc(C)n(C(C)C)c5c4)n3)nc2)CC1 + CC(Nc1ncnc2nc[nH]c12)c1cc2cccc(Cl)c2c(=O)n1-c1ccccc1
> 1000 nM: IC50 (second compound 0.0316 µM) | IC50 (second compound 0.1 µM) | IC50 (second compound 0.316 µM) | IC50 (second compound 1 µM) | IC50 (second compound 3.16 µM) | IC50 (second compound 10 µM)
inactive: viability, T/C (second compound 0.0316 µM, first compound 0.00316 µM) 96.4% | viability, T/C (second compound 0.0316 µM, first compound 0.01 µM) 98.5% | viability, T/C [1] 103% | viability, T/C [2] 98% | viability, T/C [3] 122% | viability, T/C [4] 117% | viability, T/C (second compound 0.1 µM, first compound 0.00316 µM) 99% | viability, T/C (second compound 0.1 µM, first compound 0.01 µM) 95.5% | viability, T/C [5] 99.8% | viability, T/C [6] 110% | viability, T/C [7] 113% | viability, T/C [8] 118% | viability, T/C (second compound 0.316 µM, first compound 0.00316 µM) 95.4% | viability, T/C (second compound 0.316 µM, first compound 0.01 µM) 103% | viability, T/C [9] 103% | viability, T/C [10] 105% | viability, T/C [11] 111% | viability, T/C [12] 116% | viability, T/C (second compound 1 µM, first compound 0.00316 µM) 92.7% | viability, T/C (second compound 1 µM, first compound 0.01 µM) 98.4% | viability, T/C [13] 97.5% | viability, T/C [14] 108% | viability, T/C [15] 114% | viability, T/C [16] 114% | viability, T/C (second compound 3.16 µM, first compound 0.00316 µM) 95.5% | viability, T/C (second compound 3.16 µM, first compound 0.01 µM) 94.8% | viability, T/C [17] 72.9% | viability, T/C [18] 98.6% | viability, T/C [19] 104% | viability, T/C [20] 101% | viability, T/C (second compound 10 µM, first compound 0.00316 µM) 67.5% | viability, T/C (second compound 10 µM, first compound 0.01 µM) 61% | viability, T/C [21] 69.5% | viability, T/C [22] 72.5% | viability, T/C [23] 80.8% | viability, T/C [24] 84.3%

Cn1ncc(Cl)c1-c1cc(C(=O)NC(CN)Cc2cccc(F)c2)sc1Cl (centres undefined) + CC(Nc1ncnc2nc[nH]c12)c1cc2cccc(Cl)c2c(=O)n1-c1ccccc1
164 nM: IC50 (second compound 0.316 µM)
150 nM: IC50 (second compound 1 µM)
125 nM: IC50 (second compound 3.16 µM)
144 nM: IC50 (second compound 0.0316 µM)
inactive: viability, T/C [1] 88.2% | viability, T/C [2] 58.2% | viability, T/C [3] 32.5% | viability, T/C [4] 20.9% | viability, T/C (second compound 0.0316 µM, first compound 3.16 µM) 13.4% | viability, T/C [5] 81.7% | viability, T/C [6] 64.9% | viability, T/C [7] 33.2% | viability, T/C [8] 20.6% | viability, T/C (second compound 0.1 µM, first compound 3.16 µM) 13.3% | viability, T/C [9] 86.4% | viability, T/C [10] 62.4% | viability, T/C [11] 32.8% | viability, T/C [12] 21.4% | viability, T/C (second compound 0.316 µM, first compound 3.16 µM) 13.1% | viability, T/C [13] 72.2% | viability, T/C [14] 59.6% | viability, T/C [15] 33.7% | viability, T/C [16] 18.5% | viability, T/C [17] 78.5% | viability, T/C [18] 55.3% | viability, T/C [19] 30.4% | viability, T/C [20] 17.1% | viability, T/C [21] 62.5% | viability, T/C [22] 44.8% | viability, T/C [23] 25.2% | viability, T/C [24] 12.3%
active: viability, T/C (second compound 0.0316 µM, first compound 10 µM) 3.64% | viability, T/C (second compound 0.1 µM, first compound 10 µM) 6.15% | viability, T/C (second compound 0.316 µM, first compound 10 µM) 4.15% | viability, T/C (second compound 1 µM, first compound 3.16 µM) 11.6% | viability, T/C (second compound 1 µM, first compound 10 µM) 3.79% | viability, T/C (second compound 3.16 µM, first compound 3.16 µM) 9% | viability, T/C (second compound 3.16 µM, first compound 10 µM) 2.75% | viability, T/C (second compound 10 µM, first compound 3.16 µM) 6.81% | viability, T/C (second compound 10 µM, first compound 10 µM) 2.88%
174 nM: IC50 (second compound 0.1 µM)
70.7 nM: IC50 (second compound 10 µM)
